What was measured:
Type in all cases: in vivo
rapeseed = assay: Test Example 5: effect on crop by foliage application, plastic box (symbol g); settings: 320 g/ha, 3 weeks after application
Summary of the method: (§1)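 Soil: sterilized diluvial. Container: plastic box, 21 × 13 cm, 7 cm deep. Sowing: spot-like, ~1.5 cm cover. Growth: greenhouse, 25° C. to 30° C.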

soybean [1] = assay: Test Example 5: effect on crop by foliage application, plastic box (symbol d); settings: 320 g/ha, 3 weeks after application
Summary of the method: as §1

soybean [2] = assay: Test Example 4: effect on crop by soil treatment (symbol d); settings: for d: soybean, effect grade on crop: 320 g/ha
Summary of the method: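 Soil-treatment setup: crop and weed seeds were spot-sown into sterilized diluvial soil, then buried beneath approximately 1.5 cm of it, and the boxes were housed in a 25–30° C. greenhouse.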

Stellaria media = assay: Test Example 4: herbicidal effect by soil treatment (symbol P)
Summary of the method: (§2)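 Seeds were sown in sterilized diluvial soil, covered with about 1.5 cm of soil, and the soil surface was sprayed with a water-diluted emulsion of the compound at a predetermined rate. Plants grew in a greenhouse at 25° C. to 30° C.; effects were scored visually 3 weeks after application.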

Digitaria ciliaris = assay: Test Example 4: herbicidal effect by soil treatment (symbol F)
Summary of the method: as §2

[3] = tested on: directly sowed rice plant; assay: Test Example 3: effect on crop by foliage application, Wagner pot (symbol b); settings: application herbicide amount 320 g/ha; for b (directly sowed rice plant) effect on crop grade: Table 24
Summary of the method: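 Plants are raised from seed in flooded paddy conditions: water stands 0.1–0.5 cm over alluvial soil, and the pot is kept in a greenhouse at 25–30 °C. Species sown are barnyardgrass (E. crus-galli var. crus-galli), Leptochloa chinensis, Cyperus difformis and rice.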

Scirpus juncoides = assay: Test Example 1: herbicidal activity, application before weed generation in submerged conditions (symbol B); settings: application herbicide amount 320 g/ha
Summary of the method: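 In a flooded pot test with alluvial soil, the emulsion-formulated compound was diluted with water to a predetermined amount and applied to the floodwater immediately on the sowing day. Pots were held in a greenhouse at 25–30 °C for 3 weeks before each weed was rated.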

beet = assay: Test Example 5: effect on crop by foliage application, plastic box (symbol f); settings: 320 g/ha, 3 weeks after application
Summary of the method: as §1

Veronica persica = assay: Test Example 4: herbicidal effect by soil treatment (symbol R)
Summary of the method: as §2

Galium spurium = assay: Test Example 5: herbicidal effect by foliage application, plastic box (symbol Q); settings: 320 g/ha, 3 weeks after application
Summary of the method: (§3)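 Leaf-applied emulsion, water-diluted to a preset herbicide dose, on two-week-old seedlings raised in a 25° C. to 30° C. greenhouse; injury rated at 3 weeks using earlier criteria.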

Setaria viridis [4] = assay: Test Example 5: herbicidal effect by foliage application, plastic box (symbol G); settings: 320 g/ha, 3 weeks after application
Summary of the method: as §3

[5] = tested on: Echinochloa crus-galli var. crus-galli; assay: Test Example 5: herbicidal effect by foliage application, plastic box (symbol H); settings: 320 g/ha, 3 weeks after application
Summary of the method: as §3

Setaria viridis [6] = assay: Test Example 4: herbicidal effect by soil treatment (symbol G)
Summary of the method: as §2

[7] = tested on: Echinochloa crus-galli var. crus-galli; assay: Test Example 4: herbicidal effect by soil treatment (symbol H)
Summary of the method: as §2

Monochoria vaginalis = assay: Test Example 2: herbicidal activity, application during weed generation in submerged conditions (symbol C); settings: Table 23; application herbicide amount 320 g/ha; grade 0-5 by criteria of Test Example 1
Summary of the method: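 Visual herbicidal ratings, taken three weeks after dosing, reflect post-emergence water-surface application to seedlings at one to two leaves. Conditions: co-sown weeds in alluvial soil flooded to 4 cm, greenhouse held at 25° C. to 30° C.; compound given as water-diluted emulsion at a fixed herbicide amount.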

[8] = application herbicide amount 320 g/ha

| SMILES | g: rapeseed, effect on crop grade (rapeseed) | d: soybean, effect on crop grade (soybean [1]) | Effect on crop grade, d: soybean (soybean [2]; [8]) | Herbicidal effect grade, P: Stellaria media (Stellaria media; [8]) | Herbicidal effect grade, F: Digitaria ciliaris (Digitaria ciliaris; [8]) | b (directly sowed rice plant) effect on crop grade [3] | B (Scirpus juncoides) herbicidal effect grade (Scirpus juncoides) | f: beet, effect on crop grade (beet) | Herbicidal effect grade, R: Veronica persica (Veronica persica; [8]) | Q: Galium spurium, herbicidal effect grade (Galium spurium) | G: Setaria viridis, herbicidal effect grade (Setaria viridis [4]) | H: Echinochloa crus-galli var. crus-galli, herbicidal effect grade [5] | Herbicidal effect grade, G: Setaria viridis (Setaria viridis [6]; [8]) | Herbicidal effect grade, H: Echinochloa crus-galli var. crus-galli [7, 8] | Herbicidal effect grade, C: Monochoria vaginalis (Monochoria vaginalis) | g: rapeseed, effect on crop (criteria 0-5) (rapeseed) | d: soybean, effect on crop (criteria 0-5) (soybean [1]) | d: soybean, effect grade on crop (soybean [2]) | P: Stellaria media, herbicidal effect grade (Stellaria media; 320 g/ha) | F: Digitaria ciliaris, herbicidal effect grade (Digitaria ciliaris; 320 g/ha) | other results |
| --- | --- | --- | --- | --- | --- | --- | --- | --- | --- | --- | --- | --- | --- | --- | --- | --- | --- | --- | --- | --- | --- |
| CC#Cc1cc(C)c(C2=C(O)CC(CC(=NOC)C(C)C)C2=O)c(C)c1 (stereo not drawn) [9-006] | 4 (Herbicidal ratio of 70% or higher and lower than 90%) | 0 (Herbicidal ratio of 5% or lower (almost no effect)) | 0 (Herbicidal ratio of 5% or lower (almost no effect)) | 0 (Herbicidal ratio of 5% or lower (almost no effect)) | 5 (Herbicidal ratio of 90% or more (almost completely withered)) | 5 (Herbicidal ratio of 90% or more (almost completely withered)) | 4 (Herbicidal ratio of 70% or higher and lower than 90%) | 0 (Herbicidal ratio of 5% or lower (almost no effect)) | 4 (Herbicidal ratio of 70% or higher and lower than 90%) | 0 (Herbicidal ratio of 5% or lower (almost no effect)) | 5 (Herbicidal ratio of 90% or more (almost completely withered)) | 5 (Herbicidal ratio of 90% or more (almost completely withered)) | 5 (Herbicidal ratio of 90% or more (almost completely withered)) | 5 (Herbicidal ratio of 90% or more (almost completely withered)) | – | – | – | – | – | – | – |
| CON=C(CC1CC(OC(=O)N2CCOCC2)=C(c2c(C)cc(C)cc2OC)C1=O)C1CC1 (mixture of isomers) [13-005] | 3 (Herbicidal ratio of 40% or higher and lower than 70%) | 0 (Herbicidal ratio of 5% or lower (almost no effect)) | – | – | – | 5 (Herbicidal ratio of 90% or more (almost completely withered)) | 0 (Herbicidal ratio of 5% or lower (almost no effect)) | 0 (Herbicidal ratio of 5% or lower (almost no effect)) | – | 0 (Herbicidal ratio of 5% or lower (almost no effect)) | 5 (Herbicidal ratio of 90% or more (almost completely withered)) | 5 (Herbicidal ratio of 90% or more (almost completely withered)) | – | – | – | – | – | – | – | – | d: soybean, effect on crop grade (soybean [2]; [8]): 0 (Herbicidal ratio of 5% or lower (almost no effect)); P: Stellaria media, herbicidal effect grade (Stellaria media; [8]): 0 (Herbicidal ratio of 5% or lower (almost no effect)); F: Digitaria ciliaris, herbicidal effect grade (Digitaria ciliaris; [8]): 4 (Herbicidal ratio of 70% or higher and lower than 90%); R: Veronica persica, herbicidal effect grade (Veronica persica; [8]): 0 (Herbicidal ratio of 5% or lower (almost no effect)); G: Setaria viridis, herbicidal effect grade (Setaria viridis [6]; [8]): 0 (Herbicidal ratio of 5% or lower (almost no effect)); H: Echinochloa crus-galli var. crus-galli, herbicidal effect grade [7, 8]: 1 (Herbicidal ratio of 5% or higher and lower than 20%) |
| CC(CC1CC(OC(=O)N2CCOCC2)=C(c2c(C)cc(-c3ccc(Cl)cc3)cc2C)C1=O)=NOCC(F)(F)F (mixture of isomers) [9-025] | 0 (Herbicidal ratio of 5% or lower (almost no effect)) | 0 (Herbicidal ratio of 5% or lower (almost no effect)) | 0 (Herbicidal ratio of 5% or lower (almost no effect)) | 0 (Herbicidal ratio of 5% or lower (almost no effect)) | 2 (Herbicidal ratio of 20% or higher and lower than 40%) | 2 (Herbicidal ratio of 20% or higher and lower than 40%) | 1 (Herbicidal ratio of 5% or higher and lower than 20%) | 0 (Herbicidal ratio of 5% or lower (almost no effect)) | 0 (Herbicidal ratio of 5% or lower (almost no effect)) | 0 (Herbicidal ratio of 5% or lower (almost no effect)) | 4 (Herbicidal ratio of 70% or higher and lower than 90%) | 1 (Herbicidal ratio of 5% or higher and lower than 20%) | 0 (Herbicidal ratio of 5% or lower (almost no effect)) | 0 (Herbicidal ratio of 5% or lower (almost no effect)) | – | – | – | – | – | – | – |
| COCCON=C(C)CC1CC(O)=C(c2c(C)cc(Br)cc2C)C1=O (stereo not drawn) [9-017] | 3 (Herbicidal ratio of 40% or higher and lower than 70%) | 0 (Herbicidal ratio of 5% or lower (almost no effect)) | 0 (Herbicidal ratio of 5% or lower (almost no effect)) | – | 4 (Herbicidal ratio of 70% or higher and lower than 90%) | 5 (Herbicidal ratio of 90% or more (almost completely withered)) | 2 (Herbicidal ratio of 20% or higher and lower than 40%) | 0 (Herbicidal ratio of 5% or lower (almost no effect)) | 0 (Herbicidal ratio of 5% or lower (almost no effect)) | 0 (Herbicidal ratio of 5% or lower (almost no effect)) | 5 (Herbicidal ratio of 90% or more (almost completely withered)) | 5 (Herbicidal ratio of 90% or more (almost completely withered)) | 0 (Herbicidal ratio of 5% or lower (almost no effect)) | 0 (Herbicidal ratio of 5% or lower (almost no effect)) | 0 (Herbicidal ratio of 5% or lower (almost no effect)) | – | – | – | – | – | – |
| CCCCCCCCS(=O)(=O)OC1=C(c2c(C)cc(C)cc2C)C(=O)C(CC(C)=NOC)C1 (stereo not drawn) [1-107] | – | – | – | – | – | – | – | – | – | – | – | – | – | – | 0 (Herbicidal ratio of 5% or lower (almost no effect)) | 4 (Herbicidal ratio of 70% or higher and lower than 90%) | 3 (Herbicidal ratio of 40% or higher and lower than 70%) | 0 (Herbicidal ratio of 5% or lower (almost no effect)) | 0 (Herbicidal ratio of 5% or lower (almost no effect)) | 5 (Herbicidal ratio of 90% or more (almost completely withered)) | effect on crop b (directly sowed rice plant), grade 0-5 [3]: 5 (Herbicidal ratio of 90% or more (almost completely withered)); Herbicidal effect grade, B: Scirpus juncoides (Scirpus juncoides): 4 (Herbicidal ratio of 70% or higher and lower than 90%); f: beet, effect on crop (criteria 0-5) (beet): 0 (Herbicidal ratio of 5% or lower (almost no effect)); R: Veronica persica, herbicidal effect grade (Veronica persica; 320 g/ha): 0 (Herbicidal ratio of 5% or lower (almost no effect)); G: Setaria viridis, herbicidal effect (criteria 0-5) (Setaria viridis [4]): 5 (Herbicidal ratio of 90% or more (almost completely withered)); H: Echinochloa crus-galli var. crus-galli, herbicidal effect (criteria 0-5) [5]: 5 (Herbicidal ratio of 90% or more (almost completely withered)); G: Setaria viridis, herbicidal effect grade (Setaria viridis [6]; 320 g/ha): 3 (Herbicidal ratio of 40% or higher and lower than 70%); H: Echinochloa crus-galli var. crus-galli, herbicidal effect grade ([7]; 320 g/ha): 5 (Herbicidal ratio of 90% or more (almost completely withered)) |
| CON=C(C)CC1CC(OC(=O)c2cnoc2C2CC2)=C(c2c(C)cc(C)cc2C)C1=O (stereo not drawn) [1-103] | – | – | – | – | – | – | – | – | – | – | – | – | – | – | 0 (Herbicidal ratio of 5% or lower (almost no effect)) | 4 (Herbicidal ratio of 70% or higher and lower than 90%) | 3 (Herbicidal ratio of 40% or higher and lower than 70%) | 1 (Herbicidal ratio of 5% or higher and lower than 20%) | 0 (Herbicidal ratio of 5% or lower (almost no effect)) | 5 (Herbicidal ratio of 90% or more (almost completely withered)) | effect on crop b (directly sowed rice plant), grade 0-5 [3]: 5 (Herbicidal ratio of 90% or more (almost completely withered)); Herbicidal effect grade, B: Scirpus juncoides (Scirpus juncoides): 5 (Herbicidal ratio of 90% or more (almost completely withered)); f: beet, effect on crop (criteria 0-5) (beet): 0 (Herbicidal ratio of 5% or lower (almost no effect)); R: Veronica persica, herbicidal effect grade (Veronica persica; 320 g/ha): 0 (Herbicidal ratio of 5% or lower (almost no effect)); G: Setaria viridis, herbicidal effect (criteria 0-5) (Setaria viridis [4]): 5 (Herbicidal ratio of 90% or more (almost completely withered)); H: Echinochloa crus-galli var. crus-galli, herbicidal effect (criteria 0-5) [5]: 5 (Herbicidal ratio of 90% or more (almost completely withered)); G: Setaria viridis, herbicidal effect grade (Setaria viridis [6]; 320 g/ha): 5 (Herbicidal ratio of 90% or more (almost completely withered)); H: Echinochloa crus-galli var. crus-galli, herbicidal effect grade ([7]; 320 g/ha): 5 (Herbicidal ratio of 90% or more (almost completely withered)) |
